Test results reported in patent US20090068098A1, “ANTIBODIES AND RELATED MOLECULES THAT BIND TO 58P1D12 PROTEINS” (priority 2007, published 2009).

System: LAPC9-AI androgen-independent prostate tumor xenografts
Experiment: Established LAPC9-AI prostate tumor xenografts in tibiae, monotherapy and combination with Carboplatin
Format: in vivo, mouse
Settings: day 33, vs control antibody; MAb 2 mg loading then 1.0 mg i.p. twice weekly, 7 doses; Carboplatin 40 mg/kg i.v. days 7, 11, 15, 19, 22, 26
Protocol: FIG. 16. […] The tumors were allowed to establish for 7 days, at which time the animals were randomized and assigned to four different groups (n=10 in each group) as indicated in the graph. […] Carboplatin (40 mg/kg) was administered to the mice intravenously (i.v.) on days 7, 11, 15, 19, 22 and 26. On day 33 all mice were sacrificed and the tumors were excised and weighed on an electronic balance.
The tumors were allowed to establish for 7 days, at which time the animals were randomized and assigned to four different groups (n=10 in each group). […] Carboplatin (40 mg/kg) was administered to the mice intravenously (i.v.) on days 7, 11, 15, 19, 22 and 26. On day 33 all mice were sacrificed and the tumors were excised and weighed on an electronic balance.

SMILES: N.N.O=C([O-])C1(C(=O)[O-])CCC1.[Pt+2] [Carboplatin]
- inhibition of tumor growth (tumor weight): 87%
